Measured values: US11905417B2, “Anthraquinone compound, liquid crystal composition for dimming including said compound, and dimming element” (Nippon Kayaku Kabushiki Kaisha, priority 2020, dated 2024)

Tests used:
[1] = Evaluation of solubility of compounds in liquid crystal material, photocurable compound, and photopolymerization initiator; type: physicochemical; conditions: room temperature, 0.5% steps, tested up to about 3.5% by mass
Description: (§1) When a uniform composition with no insoluble matter was obtained, a procedure of further adding 0.005 parts of the compound represented by No. 2, stirring the mixture at room temperature for 1 hour, and then visually observing the appearance of the composition was repeated until a dissolution amount (see the following) reached about 3.5% by mass. The solubility of the compound represented by No. 2 in the liquid crystal material, the photocurable compound, and the photopolymerization initiator was evaluated by the maximum addition amount at which a uniform composition with no insoluble matter was obtained.
When a uniform composition with no insoluble matter was obtained even after 0.030 parts of the compound were added, the maximum dissolution amount was provisionally determined to be “about 3.5% by mass”.

[2] = Evaluation of solubility of compounds in liquid crystal material (maximum dissolution amount, visual observation); type: physicochemical; conditions: in liquid crystal material (cyanobiphenyl/terphenyl mixture), room temperature, 0.5% steps, tested up to about 4.5% by mass
Description: as §1, with “0.003” for “0.005”, “4.5%” for “3.5%”, “material” for “material, the photocurable compound, and the photopolymerization initiator”
When a uniform composition with no insoluble matter was obtained even after 0.024 parts of the compound were added, the maximum dissolution amount was provisionally determined to be “about 4.5% by mass”.

[3] = Evaluation of contrast of compositions at maximum dissolution amount encapsulated in a cell (C=Ky/Kz at λmax); conditions: absorption peak wavelength of the composition in the cell
Description: The compositions obtained in Examples 3 and 4 and Comparative Examples 6 to 10 were each encapsulated in an element made of two upper and lower glass substrates each having a transparent electrode with an inter-substrate gap of 15 μm, in which the surface of each glass substrate in contact with a liquid crystal was rubbed with a polyamide-based resin and was subjected to a homogeneous orientation treatment. When no voltage was applied in the element subjected to the orientation treatment, the liquid crystal was in a homogeneously oriented state, and dye molecules were also in the same orientation according to the host liquid crystal.
Each of the uniform compositions with no insoluble matter, which were obtained in the above-mentioned “Evaluation of Solubilities of Compounds of Examples according to Present Invention and Compounds of Comparative Examples in Liquid Crystal Material” and which were each made in the maximum dissolution amount, was encapsulated in a cell. In the cell in which each of the uniform compositions was encapsulated, a transmittance (Ky) of linearly polarized light parallel to the orientation direction and a transmittance (Kz) of polarized light perpendicular to the orientation direction were measured, and a contrast (C) at its absorption peak wavelength (λmax) was determined from the following expression. C=Ky/Kz

Row | Compound | Maximum dissolution amount [1] [% by mass] | Maximum dissolution amount [2] [% by mass] | λmax(nm) [3] [nm]
1 | CCCCCCCCC(CCCCCC)C(=O)Oc1ccc(Sc2cccc3c2C(=O)c2cccc(Sc4ccc(OC(=O)C(CCCCCC)CCCCCCCC)cc4)c2C3=O)cc1 (stereo not drawn) [No.2] | 3.5 | 4.5 | 460
2 | CCCCCC(C)CCC(=O)Oc1ccc(Sc2cccc3c2C(=O)c2cccc(Sc4ccc(OC(=O)CCC(C)CCCCC)cc4)c2C3=O)cc1 (stereo not drawn) [Formula(E)] | 1.0 | 2.0 | 460

Results, then the compound that gave them:

Row | Maximum dissolution amount [1] [% by mass] | Maximum dissolution amount [2] [% by mass] | λmax(nm) [3] [nm] | Compound
3 | 3.5 | 3.5 | 462 | CCCCC(CC)C(=O)Oc1ccc(Sc2cccc3c2C(=O)c2cccc(Sc4ccc(OC(=O)C(CC)CCCC)cc4)c2C3=O)cc1 (stereo not drawn) [No.3]
4 | 0.5 | 1.0 | 462 | CC(C)(C)c1ccc(Sc2cccc3c2C(=O)c2cccc(Sc4ccc5ccccc5c4)c2C3=O)cc1 [Formula(A)]
5 | 1.0 | 2.0 | 462 | CC(CC(=O)Oc1ccc(Sc2cccc3c2C(=O)c2cccc(Sc4ccc(OC(=O)CC(C)CC(C)(C)C)cc4)c2C3=O)cc1)CC(C)(C)C (stereo not drawn) [Formula(D)]
